Laboratory results taken from ChEMBL document CHEMBL1154506, “Discovery and development of the anticancer agent salinosporamide A (NPI-0052)” (Bioorg Med Chem, 2009).

Tests used:
HCT-116 = assay: Cytotoxicity against human HCT116 cells; format: functional, cell-based
[1] = Cytotoxicity against human NCI60 cells; format: functional

Molecule C[C@@]12OC(=O)[C@]1([C@@H](O)[C@@H]1C=CCCC1)NC(=O)[C@@H]2CCCl [MARIZOMIB] has an IC50 (HCT-116) of no more than 2 ng/mL and a GI50 [1] of less than 0.01 µM.
